What was measured:
Test in all cases: Fungicidal effect on infected agar nutrient media, colony diameter
Type in all cases: cell-based
Penicillium cyclopium = details: 7th day after treatment, untreated 26.5
Summary of the method: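 Agar media (70 mm diameter, 10 mm thick) infected with Penicillium cyclopium were treated with EC formulations at 1, 10, 100 and 1000 ppm active ingredient. Fungal colony diameter was measured on day 7 after treatment.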

Alternaria tenuis = details: 5th day after treatment, untreated control 36.8
Summary of the method: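 Agar media (70 mm diameter, 10 mm thick) infected with Alternaria tenuis, treated with EC formulations at 1, 10, 100 and 1000 ppm active ingredient. Fungicidal effect read on day 5 after treatment as fungal colony diameter.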

Sclerotinia sclerotinia = details: 3rd day after treatment, untreated control 41.7
Procedure: Agar nutrient media (Diameter 70 MM, thickness 10 mm) infected by Sclerotonia sclerotinia suspension are treated with 20 EC formulations prepared according to Example 27 and comprising 1, 10, 100 and 1000 ppm, respectively of the active ingredient of the Formula I. The fungicidal effect of the compositions is evaluated on the 3rd day after treatment by measuring the diameter of the Fungi colonies.

Compound	Diameter of colony (mm) (Penicillium cyclopium; 1 ppm)	Diameter of colony (mm) (Penicillium cyclopium; 10 ppm)	Diameter of colony (mm) (Penicillium cyclopium; 100 ppm)	Diameter of colony (mm) (Penicillium cyclopium; 1000 ppm)	Diameter of colony (mm) (Alternaria tenuis; 1 ppm)	Diameter of colony (mm) (Alternaria tenuis; 10 ppm)	Diameter of colony (mm) (Alternaria tenuis; 100 ppm)	Diameter of colony (mm) (Alternaria tenuis; 1000 ppm)	Diameter of colony (mm) (Sclerotinia sclerotinia; 1 ppm)	Diameter of colony (mm) (Sclerotinia sclerotinia; 10 ppm)	Diameter of colony (mm) (Sclerotinia sclerotinia; 100 ppm)	Diameter of colony (mm) (Sclerotinia sclerotinia; 1000 ppm)
CC1COP(=S)(OC(C)C(C)I)S1 (stereo not drawn) [Compound 33]	22.3	20.7	6.1	0	33.0	21.3	6.3	0	33.2	26.4	0	0
CC(CCl)OP1(=S)OC(C)C(C)S1 (stereo not drawn) [Compound 34, 2-(0-1'-methyl-2'-chloroethyl)-2-thio-4,5-dimethyl-1,3,2-oxathiophospholane]	19.7	16.5	4.9	0	30.3	25.9	5.7	0	34.6	23.9	1.3	0
CC(CBr)OP1(=S)OC(C)C(C)S1 (stereo not drawn) [Compound 35]	25.1	14.7	8.3	0	34.7	27.1	6.2	0	38.1	25.7	2.6	0
CC(CI)OP1(=S)OC(C)C(C)S1 (stereo not drawn) [Compound 36]	23.2	16.8	7.2	0	32.5	20.7	4.3	0	37.2	26.9	0	0
CC1CSP(=S)(OC(C)C(C)Cl)O1 (stereo not drawn) [Compound 37]	19.9	17.5	6.6	0	30.8	21.9	5.6	0	39.2	27.1	0	0
CC1CSP(=S)(OC(C)C(C)Br)O1 (stereo not drawn) [Compound 38]	24.3	18.6	7.4	0	30.2	24.5	6.9	0	37.8	31.3	0	0
CC1CSP(=S)(OC(C)C(C)I)O1 (stereo not drawn) [Compound 39]	21.1	15.8	4.7	0	34.6	23.3	7.3	0	37.2	30.2	3.6	0
CC(Cl)COP1(=S)OC(C)C(C)S1 (stereo not drawn) [Compound 40]	18.9	20.0	6.8	0	31.3	21.7	6.1	0	34.9	28.0	1.9	0
CC(Br)COP1(=S)OC(C)C(C)S1 (stereo not drawn) [Compound 41]	24.1	16.4	4.9	0	33.8	25.1	7.3	0	37.6	30.0	2.6	0
CC(I)COP1(=S)OC(C)C(C)S1 (stereo not drawn) [Compound 42]	22.2	17.2	7.5	0	32.1	20.4	9.0	0	38.2	31.2	3.5	0

Reference: US4877893A, “Process for the preparation of 2-(O-alkyl)-2-thio-1,3,2-oxathiophospholanes” (priority 1987, dated 1989)
